Source: ChEMBL document CHEMBL1201862, “PubChem BioAssay data set” (2004)
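Protocol summary: plate cells (96-well), add compound at 5 concentrations, incubate 48 h, interpolate endpoints linearly. GI50: concentration for 50% inhibition of growth.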 The source made the active and inactive calls. Rule as the data show it: active = GI50 up to about 1.1 µM and inactive = higher.

Columns and labels:
Assay in all cases: NCI anticancer screen, dose series, 48 h
[1] = system: UACC-257
[2] = system: SF-539
[3] = system: EKVX
[4] = system: OVCAR-8
[5] = system: NCI-H23
[6] = system: SK-MEL-2
[7] = system: SNB-19
[8] = system: SN12C
[9] = system: CCRF-CEM
[10] = system: DMS-114
[11] = system: NCI-H226
[12] = system: U-251
[13] = system: SR
[14] = system: HCC 2998
[15] = system: LOX IMVI
[16] = system: HOP-92

Measured: GI50

O=C(CC1C(=O)Nc2ccccc2S1(=O)=O)Nc1cccc(Cl)c1 (centres undefined)
inactive: [1] 19.8 µM | [2] 10.7 µM | [3] 17.2 µM | [4] 17.8 µM | [5] 18.9 µM | [6] 27.1 µM | [7] 19.4 µM | [8] 15.7 µM | [9] 22.3 µM | [10] 16.1 µM | [11] 17.3 µM | [12] 13.6 µM | [13] 18.2 µM | [14] 18.2 µM | [15] 15.2 µM | [16] 16.1 µM

O=C(O)CCSC(=O)Nc1ccc(/N=N/c2ccccc2)cc1
inactive: [1] > 100 µM | [2] > 100 µM | [3] 74 µM | [4] 61.1 µM | [5] > 100 µM | [7] > 100 µM | [8] > 100 µM | [9] 62.5 µM | [10] 61.8 µM | [11] > 100 µM | [12] 64.6 µM | [13] 37.9 µM | [14] > 100 µM | [15] > 100 µM | [16] > 100 µM

CCOC(=O)C1=C(O)C(=O)c2cc(C)ccc2C1=O
inactive: [1] 48 µM | [2] > 100 µM | [3] > 100 µM | [4] > 100 µM | [5] 27.2 µM | [6] > 100 µM | [7] 31.6 µM | [8] > 100 µM | [9] > 100 µM | [10] > 100 µM | [11] 22.2 µM | [12] > 100 µM | [13] > 100 µM | [14] > 100 µM | [15] 55.2 µM | [16] > 100 µM

CCOP(=O)(OCC)/C(C#N)=C\c1ccc(OC(C)=O)cc1
inactive: [1] > 100 µM | [2] > 100 µM | [3] > 100 µM | [4] > 100 µM | [5] > 100 µM | [6] > 100 µM | [7] > 100 µM | [8] > 100 µM | [9] > 100 µM | [10] > 100 µM | [11] > 100 µM | [12] > 100 µM | [13] > 100 µM | [14] > 100 µM | [15] > 100 µM | [16] > 100 µM

O=C1CC2(C[C@@H]3CCCCCCCCC[C@@H](C3)C2)N1 (some centres undefined)
inactive: [1] 12.2 µM | [2] 15.8 µM | [3] 14.4 µM | [4] 17.5 µM | [5] 16.7 µM | [6] 19.8 µM | [7] 20 µM | [8] 16.8 µM | [9] 17.5 µM | [10] 16.7 µM | [11] 14.3 µM | [12] 16.6 µM | [13] 10.8 µM | [14] 12.2 µM | [16] 10.8 µM

O=C1O[B-](c2ccccc2)(c2ccccc2)[NH2+]C1CS (centres undefined)
inactive: [1] 66.1 µM | [2] 57.7 µM | [3] > 100 µM | [4] > 100 µM | [5] 61.2 µM | [6] 83.8 µM | [7] > 100 µM | [8] 80.4 µM | [9] 17.7 µM | [10] 34.9 µM | [11] 68.4 µM | [12] 63.5 µM | [13] 28.8 µM | [14] 49.7 µM | [15] 24.3 µM | [16] 27.3 µM
